Test results taken from EP0055490A1, “Tetrahydro-1,2,4-oxadiazin-5-one derivatives, processes for their preparation and medicines containing these compounds” (RICHTER GEDEON VEGYÉSZETI GYÁR RT, priority 1980, dated 1982).

Key:
CFLP-Mäusen [1] = assay: Maximal electroshock [MES] anticonvulsant test; assay type: in vivo; conditions: Mus musculus, po; 20 mg/kg peroral, measured 1 hour after dosing, groups of 10 mice; corneal electrode 20 mA, 0,2 s; protection = absence of tonic hindlimb extension; read-out: Hemmwirkung in % in Bezug auf den maximalen Elektroschock
Description: (§1) Die pharmakologischen Wirkungen der erfindungsgemäßen Tetrahydro-1,2,4-oxadiazin-5-onderivate der allgemeinen Formel I wurden in Tierversuchen nach den üblichen pharmakologischen Verfahrensweisen nachgewiesen, wobei als Vergleichssubstanzen die anerkannt gut wirksamen bekannten Handelsprodukte 5,5-Diphenylhydantoin [Vergleichssubstanz A] und 3-Methyl-5-äthyl-5-phenylhydantoin [Vergleißhssubstanz B] gleicher Wirkungsrichtung verwendet wurden. Die Tierversuche wurden mit CFLP-Mäusen (LATI, Gödöllo, Ungarn) von gemischtem Geschlecht (Körpergewicht: 18 bis 22 g) mit Gruppen von je 10 Tieren durchgeführt. Die zu untersuchenden Verbindungen wurden in einer 5%-igen wäßrigen Lösung von Polyoxyäthylensorbitanmonooleat [Tween 80® suspendiert und diese Suspensionen wurden.auf peroralem Wege mit einer Sonde den Tieren verabreicht. Die Wirkstoffe wurden in den zur Untersuchung der krampfhemmenden beziehungsweise antikonvulsiven Wirkung durchgeführten Versuchen in Dosen von 20 mg/kg Körpergewicht und zur Messung der neurotoxischen Wirkung in Dosen von 80 mg/kg Körpergewicht verabreicht. Die Wirkungen wurden 1 Stunde nach der Verabreichung durch die im folgenden beschriebenen Verfahrensweisen gemessen.
a) Maximaler Elektroschock [MES]
Die Tiere wurden nach der Verfahrensweise von E. A. Swinyard und Mitarbeitern (J. Pharmacol. 106 [1952], 319) mit einer Hornhautelektrode beziehungsweise Corneal--Elektrode (20 mA, 0,2 Sekunde) geschockt. 100% der Blindversuchs- beziehungsweise Kontrolltiere reagierten auf diesen Reiz mit einem tonischen Streckkrampf (extensorischen Krampf) der hinteren Gliedmaßen. Das Unterbleiben dieser Reaktion wurde als unter der Wirkung der Behandlung eingetretener Schutz gewertet.

CFLP-Mäusen [2] = assay: Inhibition of pentamethylenetetrazole (pentetrazole) convulsion; assay type: in vivo; conditions: Mus musculus, sc; 20 mg/kg peroral, 1 hour after dosing, groups of 10 mice; 125 mg/kg Pentamethylentetrazol subcutaneous; read-out: Hemmwirkung in % in Bezug auf den Pentamethylentetrazolkrampf tonischen Streckkrampf
Description: as §1
b) Hemmwirkung gegen den Pentamethylentetrazolkrampf [Pentetrazolkrampf]
Es wurden 125 mg Pentamethylentetrazol/kg Körpergewicht nach der Verfahrensweise von Cr. N. Everett und R. K. Richards (J. Pharmacol. Exp: Therap. 81 [1944], 402) den Tieren subkutan verabreicht. 1 Stunde nach der Verabreichung des zu untersuchex den Wirkstoffes wurde die Wirkung beobachtet: Als Schutiwirkung wurde das Unterbleiben des klonischen Krampfes beriehungsweise des tonischen Streckkrampfes der hinteren GliedmaBen bewertet.

Acute toxicity (LD50) = conditions: mouse, in vivo, po; single peroral dose, 14 days observation, mice; read-out: Peroraler LD50-Wert (converted)
Description: as §1
Die Toxizität der zu untersuchenden Verbindungen wurde nach 1-maliger Verabreichung von verschiedenen Dosen durch 14 Tage lange Beobachtung der Tiere ermittelt. Die LD50-Werte (die bei 50% der Tiere tödlichen Dosen) wurden auf Grund des Prozentsatzes der innerhalb 14 Tage verendeten Tiere berechnet.

Row | Compound | responders at 20 mg/kg (CFLP-Mäusen [1]) | responders at 20 mg/kg (CFLP-Mäusen [2]) | LD50 at 336 h (Acute toxicity (LD50))
1 | O=C1NC(=O)C(c2ccccc2)(c2ccccc2)N1 [Vergleichssubstanz A, 5,5-Diphenylhydantoin, reference compound] | 90% | 80% | 279 mg/kg
2 | CC(=O)N1OCC(=O)NC1c1ccc(C(=O)O)cc1 (stereo not drawn) [Beispiel 84] | 40% | – | 1000 mg/kg
3 | CC(=O)N1OCC(=O)NC1c1ccc(Br)cc1 (stereo not drawn) [Beispiel 14] | 40% | – | 800 mg/kg
4 | CC(=O)N1OCC(=O)NC1c1ccccc1 (stereo not drawn) [Beispiel 2, 2-Acetyl-3-phenyltetrahydro-1,2,4-oxadiazin-5-on] | 70% | 90% | 1190 mg/kg
5 | CC(=O)N1OC(C)C(=O)NC1c1ccccc1 (racemic) [Beispiel 61, 2-Acetyl-3-phenyl-6-methyltetrahydro-1,2,4-oxadiazin-5-on] | 20% | 50% | 1000 mg/kg
6 | CC(=O)N1OC(Cc2ccccc2)C(=O)NC1c1ccccc1 (racemic) [Beispiel 60] | – | 20% | 1000 mg/kg
7 | CCC1(c2ccccc2)NC(=O)N(C)C1=O (stereo not drawn) [Vergleichssubstanz B, 3-Methyl-5-äthyl-5-phenylhydantoin, reference compound] | 10% | 50% | 476 mg/kg
8 | O=C1CONC(c2ccc(O)cc2)N1 (stereo not drawn) [Beispiel 63] | 40% | 20% | 800 mg/kg
9 | CC(=O)N1OCC(=O)NC12CCCCC2 [Beispiel 83] | 40% | – | 1000 mg/kg
10 | CC(=O)N1OCC(=O)NC1c1cccc2ccccc12 (stereo not drawn) [Beispiel 15] | 40% | – | 800 mg/kg
11 | CC(=O)N1OCC(=O)N(C(C)=O)C1c1ccccc1 (stereo not drawn) [Beispiel 8, 2,4-Diacetyl-3-phenyltetrahydro-1,2,4-oxadiazin-5-on] | 60% | 40% | 1000 mg/kg
12 | CCOC(=O)N1OCC(=O)NC1c1ccccc1 (stereo not drawn) [Beispiel 89] | – | 20% | 1000 mg/kg
13 | CC(=O)N1OCC(=O)NC1c1ccc(F)cc1 (stereo not drawn) [Beispiel 13, 2-Acetyl-3-(4'-fluorphenyl)-tetrahydro-1,2,4-oxadiazin-5-on] | 40% | 40% | 800 mg/kg
14 | CC(=O)N1OCC(=O)NC1c1cccs1 (stereo not drawn) [Beispiel 16] | 20% | 40% | 800 mg/kg
